Data reported in the OligoGym collection.
HELM strings list units from the 5' end as sugar, base in round brackets, then linkage (d deoxyribose, r ribose, m 2'-O-methyl, p phosphodiester). Strings are as the collection lists them; they lack the last nucleoside at the 3' end of the tested compound. [moe] = 2'-O-(2-methoxyethyl) (MOE); [sp] = phosphorothioate linkage; [m5C] = 5-methylcytosine

Target: ATXN2
Experiment: mouse, dose not given
Details: ASO

Substance | 3 h FOB score [score 0-7]
RNA1{[moe](T)[sp].[moe](A)p.[moe]([m5C])p.[moe](T)p.d(T)[sp].d(T)[sp].d(T)[sp].d([m5C])[sp].d(T)[sp].d([m5C])[sp].d(A)[sp].d(T)[sp].d(G)[sp].d(T)[sp].[moe](G)p.[moe]([m5C])p.[moe](G)p.[moe](G)[sp].[moe]([m5C])}$$$$ (last 3' nucleoside missing) | 1.75
RNA1{[moe](G)[sp].[moe]([m5C])p.[moe](A)p.[moe]([m5C])p.[moe](A)p.d(T)[sp].d(A)[sp].d(G)[sp].d(G)[sp].d(T)[sp].d(T)[sp].d(A)[sp].d(G)[sp].d(A)[sp].d(A)[sp].[moe](T)p.[moe](T)p.[moe](T)[sp].[moe](T)}$$$$ (last 3' nucleoside missing) | 4
RNA1{[moe](T)[sp].[moe](T)p.[moe](A)p.[moe]([m5C])p.[moe](T)[sp].d(G)[sp].d(T)[sp].d(T)[sp].d(T)[sp].d([m5C])[sp].d(G)[sp].d(A)[sp].d([m5C])[sp].[moe]([m5C])p.[moe](T)p.[moe]([m5C])[sp].[moe](T)}$$$$ (last 3' nucleoside missing) | 6
RNA1{[moe](G)[sp].[moe]([m5C])p.[moe](T)p.[moe](G)p.[moe](A)p.d(T)[sp].d(G)[sp].d(T)[sp].d(G)[sp].d(T)[sp].d(T)[sp].d([m5C])[sp].d(A)[sp].d(T)[sp].d(G)[sp].[moe](A)p.[moe]([m5C])p.[moe](T)[sp].[moe](T)}$$$$ (last 3' nucleoside missing) | 4.5
RNA1{[moe](A)[sp].[moe]([m5C])p.[moe](T)p.[moe](T)p.d([m5C])[sp].d(T)[sp].d([m5C])[sp].d(T)[sp].d(A)[sp].d(T)[sp].d(T)[sp].d(T)[sp].d([m5C])[sp].d(T)[sp].[moe](T)p.[moe](T)p.[moe](G)p.[moe](T)[sp].[moe]([m5C])}$$$$ (last 3' nucleoside missing) | 0
RNA1{[moe](T)[sp].[moe](G)p.[moe](T)p.[moe](T)p.[moe](G)p.d([m5C])[sp].d(A)[sp].d([m5C])[sp].d(A)[sp].d(T)[sp].d(A)[sp].d(G)[sp].d(G)[sp].d(T)[sp].d(T)[sp].[moe](A)p.[moe](G)p.[moe](A)[sp].[moe](A)}$$$$ (last 3' nucleoside missing) | 4
RNA1{[moe](T)[sp].[moe]([m5C])p.[moe]([m5C])p.[moe](T)p.[moe](A)[sp].d(T)[sp].d([m5C])[sp].d(A)[sp].d(T)[sp].d([m5C])[sp].d(A)[sp].d(T)[sp].d(T)[sp].[moe](T)p.[moe](T)p.[moe]([m5C])[sp].[moe]([m5C])}$$$$ (last 3' nucleoside missing) | 1
RNA1{[moe](G)[sp].[moe](T)p.[moe](T)p.[moe](A)p.[moe]([m5C])[sp].d(T)[sp].d(G)[sp].d(T)[sp].d(T)[sp].d(T)[sp].d([m5C])[sp].d(G)[sp].d(A)[sp].[moe]([m5C])p.[moe]([m5C])p.[moe](T)[sp].[moe]([m5C])}$$$$ (last 3' nucleoside missing) | 6
RNA1{[moe](G)[sp].[moe]([m5C])p.[moe](A)p.[moe](T)p.[moe]([m5C])p.d(A)[sp].d(T)[sp].d(T)[sp].d(A)[sp].d([m5C])[sp].d(G)[sp].d(A)[sp].d([m5C])[sp].d([m5C])[sp].d(A)[sp].[moe](T)p.[moe](T)p.[moe]([m5C])[sp].[moe](T)}$$$$ (last 3' nucleoside missing) | 4
RNA1{[moe](G)[sp].[moe](T)p.[moe](G)p.[moe](A)p.[moe](T)p.[moe](G)p.d(T)[sp].d(T)[sp].d(T)[sp].d([m5C])[sp].d(A)[sp].d(T)[sp].d(T)[sp].d(G)[sp].d(G)[sp].d(G)[sp].[moe](T)p.[moe](T)[sp].[moe](T)}$$$$ (last 3' nucleoside missing) | 4
RNA1{[moe](T)[sp].[moe]([m5C])p.[moe](T)p.[moe](G)p.[moe]([m5C])p.d(T)[sp].d(A)[sp].d(A)[sp].d([m5C])[sp].d(T)[sp].d(G)[sp].d(G)[sp].d(T)[sp].d(T)[sp].d(T)[sp].[moe](G)p.[moe]([m5C])p.[moe]([m5C])[sp].[moe]([m5C])}$$$$ (last 3' nucleoside missing) | 3
RNA1{[moe](T)[sp].[moe](G)p.[moe](A)p.[moe](T)p.[moe]([m5C])p.d(T)[sp].d(T)[sp].d(G)[sp].d(T)[sp].d(G)[sp].d(T)[sp].d(A)[sp].d(T)[sp].d(A)[sp].d(T)[sp].[moe](A)p.[moe](T)p.[moe](T)[sp].[moe](A)}$$$$ (last 3' nucleoside missing) | 6
RNA1{[moe](T)[sp].[moe](A)p.[moe](T)p.[moe](G)p.[moe](A)p.d(G)[sp].d(G)[sp].d(G)[sp].d(A)[sp].d([m5C])[sp].d(T)[sp].d(A)[sp].d(G)[sp].d(A)[sp].d(G)[sp].[moe]([m5C])p.[moe](A)p.[moe](T)[sp].[moe]([m5C])}$$$$ (last 3' nucleoside missing) | 6.25
RNA1{[moe](A)[sp].[moe](T)p.[moe]([m5C])p.[moe](T)p.[moe](A)p.d(T)[sp].d(G)[sp].d(A)[sp].d(T)[sp].d(T)[sp].d(T)[sp].d(T)[sp].d([m5C])[sp].d(A)[sp].d(T)[sp].[moe]([m5C])p.[moe](A)p.[moe](G)[sp].[moe](G)}$$$$ (last 3' nucleoside missing) | 0
RNA1{[moe]([m5C])[sp].[moe](T)p.[moe](G)p.[moe](T)p.[moe](G)p.d(A)[sp].d(G)[sp].d(T)[sp].d(T)[sp].d([m5C])[sp].d(A)[sp].d([m5C])[sp].d([m5C])[sp].d(T)[sp].d(G)[sp].[moe]([m5C])p.[moe](A)p.[moe](T)[sp].[moe]([m5C])}$$$$ (last 3' nucleoside missing) | 1
RNA1{[moe](T)[sp].[moe](A)p.[moe](T)p.[moe](G)p.[moe](T)[sp].d(T)[sp].d(T)[sp].d(G)[sp].d(T)[sp].d([m5C])[sp].d(T)[sp].d(G)[sp].d(T)[sp].[moe]([m5C])p.[moe](T)p.[moe](T)[sp].[moe](A)}$$$$ (last 3' nucleoside missing) | 6
RNA1{[moe](A)[sp].[moe]([m5C])p.[moe](A)p.[moe]([m5C])p.[moe](A)p.[moe](G)p.d(T)[sp].d(T)[sp].d(T)[sp].d([m5C])[sp].d(A)[sp].d([m5C])[sp].d(T)[sp].d(A)[sp].d(G)[sp].d(G)[sp].[moe](T)p.[moe](T)[sp].[moe]([m5C])}$$$$ (last 3' nucleoside missing) | 1
RNA1{[moe](T)[sp].[moe]([m5C])p.[moe](T)p.[moe](A)p.[moe](T)[sp].d(T)[sp].d(T)[sp].d([m5C])[sp].d(T)[sp].d(T)[sp].d(T)[sp].d(G)[sp].d(T)[sp].[moe]([m5C])p.[moe]([m5C])p.[moe](A)[sp].[moe](G)}$$$$ (last 3' nucleoside missing) | 5
RNA1{[moe](T)[sp].[moe]([m5C])p.[moe](T)p.[moe](G)p.d(T)[sp].d(A)[sp].d([m5C])[sp].d(T)[sp].d(T)[sp].d(T)[sp].d(T)[sp].d([m5C])[sp].d(T)[sp].d([m5C])[sp].[moe](A)p.[moe](T)p.[moe](G)p.[moe](T)[sp].[moe](G)}$$$$ (last 3' nucleoside missing) | 0
